Results as given in patent US20220062431A1, “COMPOUNDS COMPRISING STAPLED OR STITCHED PEPTIDES FOR IMPROVED DRUG DELIVERY” (Sutura Therapeutics Ltd, priority 2017, published 2022).
“Also recorded” adds a separate entry of the source. Positions of bridges follow the written chain, without caps; N, C: chain ends. Non-standard residues stand in square brackets, D forms with d. Residues, ends and D or L forms follow the SMILES beside them. *: point of attachment. FITC = O=C1OC2(c3ccc(O)cc3Oc3cc(O)ccc32)c2ccc(NC(=S)*)cc21; PEG6 = NCCOCCOCCOCCOCCOCCOCCC(=O)O; S5 = C=CCCC[C@](C)(N)C(=O)O

Tests used:
HeLa pLuc 705 cells [1] = assay: Flow cytometry uptake of FITC labeled CPAs (FL1+ cells, MFI); type: cell-based; settings: 4 hours; for number of FL1 positive cells, cyclized vs non-cyclised (NC) peptide: cyclised peptide compared to its non-cyclised control
Protocol: (§1) HeLa pLuc705 cells were cultured in high glucose DMEM supplemented with 10% foetal calf serum (Sigma, UK) at 37° C. under an 8% CO2/92% air atmosphere.
(§2) HeLa pLuc705 cells were setup in 96 well plates with the appropriate dilutions of test compounds either FITC labeled peptides or FITC labeled PMO conjugates diluted into complete culture media (up to 100 µM). Cells were then then trypsinised, diluted to 4×10^5 cells per mL and 100 μL added to each well giving a final volume of 200 μL in each well. Cells were then incubated for either 4 or 24 hours at either 4 or 37° c.
(§3) Uptake of fluorescently-labelled PMO and peptides was determined by flow cytometry using an Accuri C6 flow cytometer. Cells were washed with PBS and glycine buffer then released with trypsin, and kept on ice before analysis in PBS containing 2.5% FBS. Cell fluorescence in single live cells was determined using FlowJo software after appropriate gating. Untreated cells were used to establish gating settings for the determination of the % fluorescein-positive cells, mean fluorescent intensity (MFI) was also calculated. Uptake was determined by gating cells that were able exclude cell-impermanent die (To-pro-3) indicating the ability of cells to retain membrane integrity.

HeLa pLuc 705 cells [2] = assay: % viable cells judged by gated cells compared to negative controls (flow cytometry); type: cell-based
Protocol: as §1, §2, §3

SMILES	MFI compared between RCM1,5 charge variants (HeLa pLuc 705 cells [1]; at a given concentration, increase for 3+ at higher concentrations >1 μM)	FL1+ cells compared to other RCM1,5 charge variants (HeLa pLuc 705 cells [1]; over a range of concentrations)	viable cells over RCM1,5-CP8M-FITC-3+ and RCM1,5-CP8M-FITC-2+ (HeLa pLuc 705 cells [2]; 0.05 μM, 4 hours)	MFI, cyclised vs non-cyclised (NC) peptide (HeLa pLuc 705 cells [1]; 2 way ANOVA)	number of FL1 positive cells, cyclized vs non-cyclised (NC) peptide (HeLa pLuc 705 cells [1]; 2 way ANOVA)	number of FL1 positive cells, cyclized vs non-cyclised (NC) peptide (HeLa pLuc 705 cells [1]; 2 way ANOVA, listed as K1E5-CP8M-FITC)	% cell viability compared to RCM1,5-P8M-FITC-3+ (HeLa pLuc 705 cells [2]; 4 hours, all concentrations)	% of cells recovered when normalized to untreated controls (% viable cells) (HeLa pLuc 705 cells [2]; 4 hours, cyclised versus non-cyclised peptide)	cellular toxicity / impact on cell viability (HeLa pLuc 705 cells [2]; all concentrations 0.05 to 100 μM, listed as K1E5-CP8M-FITC)	increase in viability comparing RCM1,5-P8M-FITC to K1E5-P8M-FITC (HeLa pLuc 705 cells [2]; over the range of concentrations (0.05 to 100 μM))
CC[C@H](C)[C@H](NC(=O)CCOCCOCCOCCOCCOCCOCCNC(=S)Nc1ccc2c(c1)C(=O)OC21c2ccc(O)cc2Oc2cc(O)ccc21)C(=O)N[C@H](C(=O)N[C@@H](Cc1ccccc1)C(=O)N[C@@]1(C)CCCC=CCCC[C@@](C)(C(N)=O)NC(=O)[C@H](Cc2ccccc2)NC(=O)[C@H](CC(C)C)NC(=O)[C@H]([C@@H](C)CC)NC1=O)[C@@H](C)CC [RCM1,5-P8M-FITC-0+] ({FITC-PEG6}-IIF[S5]ILF[S5]-NH2; staple 4-8)	no significant difference	increase	increase							
CC(C)C[C@@H]1NC(=O)[C@H](CCCNC(=N)N)NC(=O)[C@@H](NC(=O)[C@H](Cc2ccccc2)NC(=O)[C@H](CCCCN)NC(=O)[C@H](CCCNC(=N)N)NC(=O)CCOCCOCCOCCOCCOCCOCCNC(=S)Nc2ccc3c(c2)C(=O)OC32c3ccc(O)cc3Oc3cc(O)ccc32)CCC(=O)NCCCC[C@@H](C(N)=O)NC(=O)[C@H](Cc2ccccc2)NC1=O [K1E5-P8M-FITC] ({FITC-PEG6}-RKFERLFK-NH2; lactam 4-8; N-terminus assumed)				no interaction affect	no significant difference	no difference	increase	no significant difference	no adverse cellular toxicity; also recorded: do not have any negative impact	70-99%
